Marks after values point to notes of the source that are not given here.
Tests used:
[1] = test system: KB-8511; details: KB-8511 vs KB-31; cited from earlier work
[2] = test system: human HCT-15 colon carcinoma; test: Antitumor effect against s.c. transplanted HCT-15 tumors; type: in vivo, female BALB/c nude mice
Source text: Human colorectal adenocarcinoma cell line HCT-15 (ATCC CCL 225) is from the American Type Culture Collection (Rockville, Md., USA), and the cells are cultivated in vitro as recommended by the supplier. HCT-15 is an epithelial-like cell line. (Cancer Res. 39: 1020-25 [1979]) that is multi-drug resistant by virtue of over-expression of P-glycoprotein (P-gp, gp170, MDR-1;Anticancer Res. 11: 1309-12 [1991]; J. Biol. Chem. 264: 18031-40 [1989]; Int. J. Cancer 1991; 49: 696-703 [1991]) and glutathione-dependent resistance mechanisms (Int. J. Cancer 1991; 49: 688-95 [1991]).
(§1) Female or male BALB/c nu/nu (nude) mice are kept under sterile conditions (10 to 12 mice per Type III cage) with free access to food and water. Mice weigh between 20 and 25 grams at the time of tumor implantation. Tumors are established by subcutaneous injection of cells (minimum 2×10^6 cells in 100 μl PBS or medium) in carrier mice (4-8 mice per cell line). The resulting tumors are serially passaged for a minimum of three consecutive transplantations prior to start of treatment. Tumor fragments (approx. 25 mg) are implanted s.c. into the left flank of animals with a 13-gauge trocar needle while the mice are exposed to Forene (Abbott, Switzerland) anesthesia.
(§2) Tumor growth and body weights are monitored once or twice weekly. All treatments are administered intravenously (i.v.) and are initiated when a mean tumor volume of approximately 100 to 250 mm^3 is attained, depending upon the tumor type. Tumor volumes are determined using the formula […] (see Cancer Chemother. Pharmacol. 24:148-154, [1989]). Treatments with epothilone B vary the dose and the frequency of administration. Comparator agents are administered according to previously determined optimal treatment regimens. In addition to presenting changes in tumor volumes over the course of treatment, antitumor activity is expressed as T/C % (mean increase of tumor volumes of treated animals divided by the mean increase of tumor volumes of control animals multiplied by 100). Tumor. regression (%) represents the smallest mean tumor volume compared to the mean tumor volume at the start of treatment, according to the formula Regression (%)=(1−Vend/Vstart)×100(Vend=final mean tumor volume, Vstart=mean tumor volume at the start of treatment. Any animals in which the tumor has reached a size exceeding approximately 1.5 to 2.5 cm^3 are sacrificed. Details can be found below.
Tumor volumes are used as the primary indicator of activity of antitumor agents used alone or in combination, and changes in body weights are measured as an indicator of treatment tolerability.

[3] = test system: human COLO 205 colon tumors; type: in vivo, female BALB/c nude mice; details: 75 mg/kg, day 32
Experimental: as §1, §2

[4] = test system: KB-8511 (Epidermoid, MDR); test: Antiproliferative assay, KB-8511; type: cell-based, human; details: KB-8511 vs parental line
Experimental: The human epidermal (mouth) carcinoma cell line KB-8511 (a P-gp over-expressing cell line derived from the epidermoid (mouth) KB-31 carcinoma cell line) is obtained from Dr. R. M. Baker, Roswell Park Memorial Institute (Buffalo, N.Y., USA) (for description see Akiyama et al., Somat. Cell. Mol. Genetics 11, 117-126 (1985) and Fojo A., et al., Cancer Res. 45, 3002-3007 (1985)) and is cultured as previously described (Meyer, T., et al., Int. J. Cancer 43 851-856 (1989)).
Antiproliferative assays are performed as previously described (Int. J. Cancer 43, 851-6 (1989)). Briefly, cells are seeded at 1.5×10^3 cells/well into 96-well microtiter plates and incubated overnight. Compounds are added in serial dilutions on day 1. The plates are then incubated for an additional 2 to 5 days, allowing for at least one cell doubling (cell line dependent), after which the cells are fixed with 3.3% v/v glutaraldehyde, washed with water and stained with 0.05% w/v methylene blue. After washing, the dye is eluted with 3% v/v HCl and the optical density measured at 665 nm with a SpectraMax 340 (Bucherer, Basel, Switzerland). IC50 values are determined by a computerized system (SoftPro, Bucherer, Basel, Switzerland) using the formula (OD test−OD start)/(OD control−OD start)×100. IC50 is defined as the drug concentration which leads to 50% of cells per well compared to control cultures (100%) at the end of incubation period.

[5] = 75 mg/kg, i.v., on days 14 and 21
[6] = 75 mg/kg, i.v., on days 14 and 21, mean ± SEM

COc1cc2c(c(OC)c1OC)-c1ccc(OC)c(=O)cc1[C@@H](NC(C)=O)CC2 [colchicine]
relative resistance when compared with the KB-31 cells [1]: ~40 fold

O=c1[nH]cc(F)c(=O)[nH]1 [5-fluorouracil, reference compound]
Regression [2, 5]: none
T/C [2, 5]: 88%
% Body Weight Change [2, 6]: 9 ± 4%
D Body Weight [2, 6]: 2.0 ± 0.7 g
D Tumor Volume (mm^3) [2, 6]: 1654 ± 824 mm^3
deaths ([2]; two 75 mg/kg administrations): 50%
T/C ([3]; i.v. every 7 days (days 14, 21, 28)): 18%
Regression ([3]; i.v. every 7 days): none
Δ Tumor Volume (mm^3) ([3]; i.v. every 7 days): 62 ± 12 mm^3

CC(=O)O[C@H]1C(=O)[C@@]2(C)[C@H]([C@H](OC(=O)c3ccccc3)[C@]3(O)C[C@H](OC(=O)[C@H](O)[C@@H](NC(=O)c4ccccc4)c4ccccc4)C(C)=C1C3(C)C)[C@]1(OC(C)=O)CO[C@@H]1C[C@@H]2O [paclitaxel, reference compound]
relative resistance, IC50 (resistant line)/IC50 (parental line) [4]: (343)^a

— US7875601B2, “Cancer treatment with epothilones” (Novartis AG, priority 1998, dated 2011)
